This note sets out measurements from ChEMBL document CHEMBL3813623, “Novel approaches to map small molecule-target interactions” (Bioorg Med Chem, 2016).

For the test, the target named is T1, Bile acid receptor (Homo sapiens, UniProt Q96RI1).
T1 sequence (Q96RI1 whole entry): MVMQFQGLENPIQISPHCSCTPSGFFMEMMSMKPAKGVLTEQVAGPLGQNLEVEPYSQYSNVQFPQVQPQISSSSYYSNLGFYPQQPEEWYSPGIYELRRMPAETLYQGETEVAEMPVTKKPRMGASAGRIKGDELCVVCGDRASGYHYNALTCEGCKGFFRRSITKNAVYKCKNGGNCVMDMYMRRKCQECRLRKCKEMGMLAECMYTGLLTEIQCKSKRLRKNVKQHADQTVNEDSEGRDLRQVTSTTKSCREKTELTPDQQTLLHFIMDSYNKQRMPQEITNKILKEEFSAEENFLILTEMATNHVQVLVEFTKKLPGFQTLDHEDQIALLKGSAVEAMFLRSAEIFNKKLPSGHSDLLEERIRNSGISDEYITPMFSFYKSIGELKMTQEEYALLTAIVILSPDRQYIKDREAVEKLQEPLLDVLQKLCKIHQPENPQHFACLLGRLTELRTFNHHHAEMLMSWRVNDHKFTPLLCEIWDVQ
The test can be described thus: Agonist activity at farnesoid x receptor(unknown origin).

Regarding `CNC(=O)O[C@@H](CC(C)C)c1nc([C@H]2OC(=O)/C(C)=C/C/C(C)=C/[C@@H](O)[C@@H](C)\C=C(C)/C=C(C)\C=C\[C@@H](O)[C@H](C)[C@H](OC)/C(C)=C/C=C/[C@@H]2C)cs1` [ARCHAZOLID A], the EC50 stood at 200 nM.
